Measured values from PMC8721105, “Novel Trypanocidal Inhibitors that Block Glycosome Biogenesis by Targeting PEX3–PEX19 Interaction” (Frontiers in Cell and Developmental Biology, 2021).
Where “and” joins values, the source holds several entries; their conditions need not be identical. Equal values may be shown once. Entries after “also recorded” stand apart in the source; their conditions may differ. Read-outs that look alike come from different tables or passages of the source.

What was measured:
GST-TbPEX3d44 = experiment: NMR saturation transfer difference (STD) with GST-TbPEX3; assay type: binding, Trypanosoma brucei; settings: for STD NMR effect with GST-TbPEX3: 10 μM protein, 300 µM ligand; for Target protein (NMR analysis): protein assigned as target, GST-TbPEX3, TbPEX19-His and GST-His tested
Protocol: (§1) NMR saturation transfer difference (STD) experiments ([Mayer and Meyer, 1999]) were carried out on a Bruker AVIII 600-MHz spectrometer equipped with a cryoprobe and a SampleJet auto sampler. One-dimensional (1D) and STD spectra were acquired at 298 K. Compounds were dissolved in DMSO-d6 to a final concentration of 50 mM. STD experiments with GST-TbPEX3, TbPEX19-His, and GST-His were performed in PBS (pH 7.4), 10% D2O at a protein concentration of 10 μM, and a ligand concentration of 300 µM. Saturation time and interscan delay within STD experiments were set to 2 and 2.5 s, respectively.

[1] = target: TbPEX3–TbPEX19 interaction (Trypanosoma brucei brucei, UniProt Q383Q3); experiment: AlphaScreen TbPEX3–TbPEX19 inhibitor screening and dose response; assay type: binding
Protocol: The above solutions were prepared in the reaction buffer [0.5% BSA v/v, 0.05% Tween 80 v/v, 0.2 mM DTT, PBS (pH7.4)] on the day of assay, diluting the compounds from 1 mM stocks in DMSO. Compounds were incubated with the proteins for 30 min at room temperature (RT). Five microliters of AlphaScreen Nickel-chelate acceptor beads (cat. no. 6760619C, PerkinElmer®) and AlphaScreen Glutathione donor beads (cat. no. 6765300, PerkinElmer®) were distributed to the mixture consecutively, with a 15-min interval. The complete 25-μl reaction solutions were incubated for 45 min at RT in the dark, and Alpha signals were captured with Cytation 5 plate reader (BioTek®) with the gain value set at 180. Schematic representation of the experiment setup of the high-throughput screening assays was prepared with BioRender.com.
Following initial hit selection, 10 μM of drugs were tested with GST-His (54 nM) and TbPEX19/TbPEX3 (5 nM) in smaller scale, and the level of signal was normalized (in %) and compared.

[2] = Cytotoxicity test on HepG2 cells; settings: human, HepG2 cells, Human cell cytotoxicity (EC50), HepG2, serial dilutions of up to 200 µM
GST-His = target: T1, GST-His (Schistosoma japonicum, UniProt P08515); experiment: NMR saturation transfer difference (STD) with GST-His control; assay type: binding; settings: 10 μM protein, 300 µM ligand
T1 construct: made in house; host or cells: E. coli BL21(DE3)
Protocol: as §1

[3] = test system: PEX11-GFP–expressing BSF cells; experiment: Immunofluorescence of PEX11-GFP–expressing BSF cells; assay type: cell-based, Trypanosoma brucei; settings: 24 h treatment
Protocol: (§2) BSF strain Lister 427 (termed hereafter as BSF427) and cell line 90-13 (stably expressing Tet repressor) were used in this study. BSF cells were grown in HMI-11 medium and maintained in logarithmic phase [below 2 × 10^6 cells/ml as described in [Kalel et al. (2019)]]. Genomically integrated stable transfections were performed with NotI-linearized plasmid constructs (pGN1-TbPEX11), which integrate into the spacer region of the ribosomal RNA repeat locus in the genome of cell line 90-13, and the clones were selected using blasticidin as described previously ([Kalel et al., 2015]). Expression of TbPEX11-GFP was confirmed with fluorescence microscopy following induction tests (data not shown) with a serial dilution of tetracycline, and minimal concentration (5 ng/ml) of tetracycline was used to achieve expression of the protein in more than 80% of the cells.
BSF 90-13 cells with genomically integrated PEX11-GFP were induced with 5 ng/ml of tetracycline and cultured overnight to initiate stable expression of PEX11-GFP. BSF427- and PEX11-GFP–expressing cells were treated for 24 h with 100 μM, 50 and 25 μM of each of the inhibitor, and DMSO was used as control. Compound-treated cultures with growth rates of about 50% compared to the DMSO control were harvested and stained for immunofluorescence and statistical analysis. […]

[4] = test system: T. brucei bloodstream form parasites; experiment: Immunofluorescence microscopy of glycosomal aldolase localization; assay type: cell-based, Trypanosoma brucei; settings: 24 h treatment; for Mislocalization (% of No. of cells) of aldolase: cultures with 50% of the growth rate of DMSO control
Protocol: BSF 90-13 cells with genomically integrated PEX11-GFP were induced with 5 ng/ml of tetracycline and cultured overnight to initiate stable expression of PEX11-GFP. BSF427- and PEX11-GFP–expressing cells were treated for 24 h with 100 μM, 50 and 25 μM of each of the inhibitor, and DMSO was used as control. Compound-treated cultures with growth rates of about 50% compared to the DMSO control were harvested and stained for immunofluorescence and statistical analysis. Cells were fixed with 4% paraformaldehyde in PBS containing 250 mM sucrose for 20 min. Fixed cells were immobilized on adhesive slide (StarFrost®) pre-coated with 10% (v/v) of poly-L-lysine (Sigma-Aldrich®) in water after 1-h incubation at RT. Cells were permeabilized with 0.1% (v/v) Triton X-100 in PBS (pH7.4) for 15 min and blocked in buffer D [PBS supplemented with 1% (w/v) BSA and 0.25% (v/v) Tween 20] for 1 h. Anti-TbAldolase primary antibody was used at 1:500 dilution in buffer D for 1.5 h incubation. After five washes in PBS for 30 min, samples were treated with Goat anti-rabbit secondary antibody (1:200, v/v, Alexa Fluor™ 594). Samples were washed, dried, and mounted with Mowiol containing 4′,6-diamidino-2-phenylindole (DAPI). Immuno-stained cells were visualized with Zeiss Elyra microscopy. Pictures of stack 3 (of 5), rotation 1 (of 3), and phase 5 (of 5) were chosen for all control and compound-treated samples.

T. brucei BSF427 = experiment: T. brucei cell viability, resazurin-based assay; set-up: species or system Trypanosoma brucei; settings: BSF427, 3 days of incubation, resazurin, read-out: T. brucei toxicity (EC50)
Protocol: as §2
T. brucei BSF427 and compound dilutions were mixed in 1 : 1 (v/v) ratio to total volume of 200 μl, to reach final concentrations of 2 × 10^3 cells/ml and 0.19–100 μM of inhibitors, in quadruplicates in 96-well plates. Culture medium with no cells was used as negative control and cultures without presence of compounds as positive control representing normal rate of cell growth. Cells were grown at 37°C in an incubator with humidified air containing 5% CO2 for 3 days. Cell viabilities were measured quantitatively using resazurin dye, by adding 25-µl resazurin (0.1 mg/ml in HBSS) to each well, and the mixture incubated for 6 h in the incubator. Fluorescence emission was detected at 570 and 585 nm after excitation at 530 nm, and fluorescence at 570 nm was subtracted from 585 nm. The inhibition curves were fitted with normalized fluorescence signal (in percentage) against concentration of compounds in Log10 scale using GraphPad Prism, and best fit was used for EC50 estimation. Chemical structures were drawn with ChemDraw 20.0.

BSF427 cells = experiment: Digitonin fractionation of compound-treated BSF cells; settings: 24 h treatment; 0.025 μg of digitonin/μg of total protein
Protocol: Pellets were resuspended in 420 μl of homogenization buffer and distributed evenly into four tubes each with 100 μl (4 μg protein). […] The mixture was incubated for 2 min at 37°C, vortexed for 10 s, and centrifuged (16,000 g) at 4°C for 15 min. 100 μl from the supernatant (solubilized fractions) was taken for Western blot analysis. Remaining pellet fractions were washed by adding homogenization buffer up to 125 μl and centrifuged again, supernatants were discarded, and pellets were resuspended in 100 μl for Western blotting.

[5] = ref ChemBridge, cited from earlier work; for Hacc (hydrogen bond acceptor) / Hdon (hydrogen bond donor): provided by the compound library supplier; for LogSw: supplier data
HepG2 cells = experiment: Cytotoxicity test on HepG2 cells; settings: read-out: Human cell cytotoxicity (EC50); HepG2, serial dilutions of up to 200 µM
TbPEX19-His = experiment: NMR saturation transfer difference (STD) with TbPEX19-His; assay type: binding, Trypanosoma brucei; settings: 10 μM protein, 300 µM ligand
Protocol: as §1

Biotin-TbPEX5pep = experiment: ELISA binding of GST-TbPEX14 and Biotin-TbPEX5pep; set-up: species or system Trypanosoma brucei; settings: read-out: KD of GST-TbPEX14 (residue1-84) and Biotin-TbPEX5pep
Protocol: ELISA with TbPEX14–TbPEX5 was used as an independent assay to confirm compound specificity by examining the compound activity on TbPEX14–TbPEX5 interaction. TbPEX14–TbPEX5 assays were performed similarly with following changes. GST-TbPEX14_1-84 was coated, and biotinylated TbPEX5 peptide (Biotin-Aca-Aca-[…]) was used as analyte to a final concentration of 500 nM. Bound PEX5 was detected using streptavidin-conjugated alkaline phosphatase [1:2,000 v/v in PBS, 0.05% v/v Tween 20 (pH 7.4), buffer D, Promega] and p-nitrophenylphosphate (PNPP, Thermo Fisher Scientific) as a substrate, reactions stopped with 3 M NaOH and absorbance read at 405 nm.

Sequence of TbPEX3–TbPEX19 interaction (Q383Q3 entry or part of it, other chains not shown): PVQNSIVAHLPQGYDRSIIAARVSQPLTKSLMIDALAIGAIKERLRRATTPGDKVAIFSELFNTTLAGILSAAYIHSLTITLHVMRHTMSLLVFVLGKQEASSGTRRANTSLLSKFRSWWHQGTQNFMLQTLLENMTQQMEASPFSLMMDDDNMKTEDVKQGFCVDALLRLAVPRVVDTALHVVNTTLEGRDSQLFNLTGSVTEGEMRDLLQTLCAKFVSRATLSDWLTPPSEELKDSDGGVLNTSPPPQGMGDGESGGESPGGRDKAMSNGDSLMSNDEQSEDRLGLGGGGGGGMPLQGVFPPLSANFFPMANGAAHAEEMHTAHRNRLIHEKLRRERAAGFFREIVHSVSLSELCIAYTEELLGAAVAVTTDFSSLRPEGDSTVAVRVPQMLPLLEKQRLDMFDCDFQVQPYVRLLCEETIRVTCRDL
T1 sequence (P08515 whole entry): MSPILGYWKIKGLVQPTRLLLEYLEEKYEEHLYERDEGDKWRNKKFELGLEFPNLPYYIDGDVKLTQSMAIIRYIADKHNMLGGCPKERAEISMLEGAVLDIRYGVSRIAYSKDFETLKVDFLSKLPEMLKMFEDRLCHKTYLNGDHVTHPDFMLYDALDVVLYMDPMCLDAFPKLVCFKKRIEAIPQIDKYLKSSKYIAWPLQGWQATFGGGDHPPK

Molecule | STD NMR effect with GST-TbPEX3 (GST-TbPEX3d44) | Target protein (NMR analysis) (GST-TbPEX3d44) | IC50 [1] | EC50 [2] | STD NMR effect with GST-His control (GST-His) | PEX11-GFP and matrix protein localization (in words) [3] | Aldolase labeling phenotype (in words) [4] | Mislocalization (% of No. of cells) of aldolase [4] | EC50 (T. brucei BSF427) | EC50 (T. brucei BSF427; Trypanosoma brucei, 72 h) | Release of glycosomal matrix proteins (HK, gGAPDH) on digitonin fractionation (in words) (BSF427 cells) | Hacc (hydrogen bond acceptor) [5] | Hdon (hydrogen bond donor) [5] | LogSw [5] | EC50 (HepG2 cells) | STD NMR effect with TbPEX19-His (TbPEX19-His) | Kd (Biotin-TbPEX5pep)
COCC1CCCN(S(=O)(=O)N2CCCN(Cc3cccc(F)c3)CC2)C1 (centres unmarked) [Compound 2, 1-(3-fluorobenzyl)-4-{[3-(methoxymethyl)piperidin-1-yl]sulfonyl}-1,4-diazepane] | significant STD effects; also recorded: strong STD signal | TbPEX3 | 37.5 µM | > 200 µM | not to GST-His; also recorded: not with TbPEX19 or GST | partly mislocalized to cytosol | mislocalization of aldolase to the cytosol | ~21% and 21.2% | 27 µM | 26.9 µM | mislocalization of the matrix protein into cytosol | 4 | 0 | -1.59 | – | – | –
CCn1c2c(c3cc(C(=O)N4CCc5[nH]cnc5C4c4cccnc4)ccc31)CCCC2=O (centres unmarked) [Compound 3, 9-ethyl-6-[(4-pyridin-3-yl-1,4,6,7-tetrahydro-5H-imidazo[4,5-c]pyridin-5-yl)carbonyl]-2,3,4,9-tetrahydro-1H-carbazol-1-one] | strong line-broadening | – | 14.3 µM | 84.4 µM | weak line-broadening | mislocalization of both PEX11 and matrix proteins | partial mislocalization of aldolase to the cytosol | ~27% and 27.5% | – | 38 µM | mislocalization of the matrix protein into cytosol | 4 | 1 | -1.77 | 84 µM | notable STD signal | –
Cn1ccnc1CNCCOc1cccc2cccnc12 [Compound 4, N-[(1-methyl-1H-imidazol-2-yl)methyl]-2-(quinolin-8-yloxy)ethanamine] | significant STD effects; also recorded: strong STD signal | TbPEX3 | 0.5 µM | > 200 µM | not to GST-His; also recorded: not with TbPEX19 or GST | – | patches of stained aldolase | ~14% and 14.3% and ~15% | 71 µM | 70.7 µM | – | 4 | 1 | -1.26 | – | – | –
GST-TbPEX14: GST-tagged TbPEX14 residues 1-84 (protein, left off: GST, end not stated, kept) MSLLLSGVVDDGKSKPEVEHTHSEREKRVSNAVEFLLDSRVRRTPTSSKVHFLKSKGLSAEEICEAFTKVGQPKTLNEIKRILS | – | – | – | – | – | – | – | – | – | – | – | – | – | – | – | – | 0.52 ± 0.13 µM
